Measurements: PMC9601137, “Deciphering Cellodextrin and Glucose Uptake in Clostridium thermocellum” (mBio, 2022)
“Also recorded” adds a separate entry of the source. Where two headings read alike, the source gives them in different places.

Experiments:
[1] = target: T1, CbpB (Acetivibrio thermocellus (Clostridium thermocellum), UniProt A3DE73, V209A/V350L); experiment: ITC titration of carbohydrate ligands with CbpB; format: binding
Method: (§1) Isothermal titration calorimetry measurements were performed at 30°C using a MicroCal PEAQ-ITC (Malvern Panalytical Ltd., Malvern, United Kingdom). Protein samples were dialyzed against buffer containing 50 mM Tris-HCl (pH 8.0) and 100 mM NaCl. Carbohydrate-ligand solutions of cellodextrins, glucose, and xylose were prepared using the same buffer as for protein dialysis. The sample cell was loaded with 280 μL of protein sample (~50 μM), and the reference cell contained distilled water. The syringe was filled with 50 μL of ligand (500 to 750 μM). Titrations were carried out by adding 0.8 μL of ligand for the first injection and 2 μL for the subsequent 19 injections, with stirring at 750 rpm. Binding parameters were determined by fitting the experimental binding isotherms using a single-site model.

[2] = target: T2, CbpA (Acetivibrio thermocellus (Clostridium thermocellum), UniProt A3DCF2); experiment: NMR titration (1H-15N HSQC) of 15N-labelled CbpA with saccharides; format: binding; details: 298 K, pH 6.5, protein:substrate up to 1:20
T2 sequence (A3DCF2 entry or part of it): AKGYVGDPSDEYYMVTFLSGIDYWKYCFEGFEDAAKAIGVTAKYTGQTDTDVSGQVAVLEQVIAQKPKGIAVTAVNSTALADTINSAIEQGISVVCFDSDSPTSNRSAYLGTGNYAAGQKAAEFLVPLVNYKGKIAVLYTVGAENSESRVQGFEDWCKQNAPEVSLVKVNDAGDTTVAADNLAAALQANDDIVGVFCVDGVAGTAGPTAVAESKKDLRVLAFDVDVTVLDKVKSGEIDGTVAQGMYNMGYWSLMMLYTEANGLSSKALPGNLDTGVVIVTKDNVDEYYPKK
Method: (§2) NMR titration experiments were performed at 298 K on a Bruker Avance III 600 MHz NMR spectrometer equipped with a cryoprobe. The ^15N-labeled protein samples contained 0.1 or 0.2 mM sugar-binding protein in 20 mM Bis-Tris (pH 6.5), 100 mM KCl, 0.02% (wt/vol) dextran sulfate sodium, and 90% H2O/10% D2O. The concentrations of carbohydrate substrates were 10, 20, or 100 mM in the same buffer. For the titration, the substrates were gradually added to the labeled proteins until the ratio of their concentrations reached 1:20. A series of two-dimensional ^1H-^15N HSQC spectra were recorded at different protein-substrate ratios during the titration.

[3] = target: T1, CbpB; experiment: NMR titration (1H-15N HSQC) of 15N-labelled CbpB with saccharides; format: binding; details: 298 K, pH 6.5, protein:substrate up to 1:20
Method: as §2

[4] = test system: C. thermocellum cells; experiment: Cell-associated cellulosome (cellulase) activity measurement; format: cell-based, Clostridium thermocellum; details: glucose+cellobiose medium vs glucose medium
Method: C. thermocellum cells were cultivated to the early exponential stage with various carbon sources. Cell suspensions (1.0 mL) were sampled and centrifuged at 15,000 × g for 10 min to separate supernatant from the pellet. Cell-associated cellulosome activity was measured in a 1.0-mL reaction volume containing the pellet and 15 mg Avicel as the substrate, using GS-2 medium as the reaction buffer. The concentration of reducing sugars was determined by the 3,5-dinitrosalicylic acid method after incubation at 55°C for 24 h unless otherwise stated. One unit of enzyme activity is defined as the amount of enzyme that releases 1 nmol reducing sugar (glucose equivalent) per min.

[5] = target: T2, CbpA; experiment: ITC titration of carbohydrate ligands with CbpA; format: binding
Method: as §1

[6] = test system: CbpC; design: method as in PMID 18952792; details: cited from earlier work
[7] = test system: Lbp; design: method as in PMID 18952792; details: previous study; cited from earlier work
[8] = test system: CbpD; experiment: ITC titration of carbohydrate ligands with CbpD; format: binding, Clostridium thermocellum; details: 30°C
Method: as §1

[9] = test system: CbpD; experiment: NMR titration of 15N-labelled CbpD with saccharides; format: binding, Clostridium thermocellum; details: 298 K
Method: as §2

[10] = ITC, 30°C, 50 mM Tris-HCl pH 8.0, 100 mM NaCl, single-site model
[11] = ITC, 30°C, 50 mM Tris-HCl pH 8.0, 100 mM NaCl, single-site model, read-out: KD (dissociation constant)

T1 sequence (A3DE73 entry or part of it V209A/V350L): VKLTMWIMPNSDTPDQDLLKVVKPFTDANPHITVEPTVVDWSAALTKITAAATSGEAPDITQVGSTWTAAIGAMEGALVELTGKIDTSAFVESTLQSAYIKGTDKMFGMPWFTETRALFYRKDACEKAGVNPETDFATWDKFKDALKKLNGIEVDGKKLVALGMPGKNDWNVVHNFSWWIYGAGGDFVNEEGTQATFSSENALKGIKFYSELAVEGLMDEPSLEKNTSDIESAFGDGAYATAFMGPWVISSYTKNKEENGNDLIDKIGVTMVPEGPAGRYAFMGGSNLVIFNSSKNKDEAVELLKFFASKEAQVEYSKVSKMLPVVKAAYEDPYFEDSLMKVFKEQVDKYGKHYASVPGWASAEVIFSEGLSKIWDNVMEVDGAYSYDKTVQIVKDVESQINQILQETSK

With O=C[C@H](O)[C@@H](O)[C@H](O[C@@H]1O[C@H](CO)[C@@H](O)[C@H](O)[C@H]1O)[C@H](O)CO [Cellobiose, cellobiose] the Kd [1] was 1.89 ± 0.36 µM, the Ka ([1]; ITC, 30°C) was 5.29 ± 0.99 ×10^5 · M^−1 and the TΔS ([1]; ITC, 30°C) was 19.5 kJ/mol. The ΔG ([1]; ITC, 30°C) was -33.2 kJ/mol, the “ΔH (change in enthalpy)” value ([1]; ITC, 30°C) was -13.7 ± 0.4 kJ/mol and the “N (number of binding site)” value [1, 10] was 1.03 ± 0.02. For the same compound, the “binding to CbpA in NMR titration (HSQC peak shifts)” value [2] was “not”, the “binding to CbpB in NMR titration (HSQC peak shifts)” value [3] was “can bind; also recorded: significant peak shifts” and the “induction effect on cellulosome expression (cellulase activity)” value ([4]; wild-type cells, 5 g/L cellobiose) was “significant induction effect”. For the same compound, the “induction effect on cellulosome expression (cellulase activity)” value ([4]; ΔtransporterB and Δ2554 cells) was “no induction effect”.
For OC[C@H]1O[C@@H](O[C@H]2[C@H](O)[C@@H](O)[C@H](O[C@H]3[C@H](O)[C@@H](O)[C@H](O[C@H]4[C@H](O)[C@@H](O)[C@H](O[C@H]5[C@H](O)[C@@H](O)C(O)O[C@@H]5CO)O[C@@H]4CO)O[C@@H]3CO)O[C@@H]2CO)[C@H](O)[C@@H](O)[C@@H]1O (some centres unmarked) [Cellopentaose, cellopentaose], the Ka ([1]; ITC, 30°C) was 14.9 ± 3.3 ×10^5 · M^−1, the TΔS ([1]; ITC, 30°C) was 47.3 kJ/mol and the ΔG ([1]; ITC, 30°C) was -35.9 kJ/mol. The “ΔH (change in enthalpy)” value ([1]; ITC, 30°C) was 11.5 ± 0.3 kJ/mol, the “N (number of binding site)” value [1, 10] was 1.02 ± 0.01 and the Kd [1, 11] was 0.67 ± 0.15 µM.
With OC[C@H]1O[C@@H](O[C@H]2[C@H](O)[C@@H](O)[C@H](O[C@H]3[C@H](O)[C@@H](O)[C@H](O[C@H]4[C@H](O)[C@@H](O)C(O)O[C@@H]4CO)O[C@@H]3CO)O[C@@H]2CO)[C@H](O)[C@@H](O)[C@@H]1O (some centres unmarked) [Cellotetraose, cellotetraose] the Ka ([1]; ITC, 30°C) was 17.8 ± 2.5 ×10^5 · M^−1, the TΔS ([1]; ITC, 30°C) was 43.3 kJ/mol and the “interaction with CbpB in ITC, in words” value ([1]; ITC, 30°C) was “highest binding affinity”. The ΔG ([1]; ITC, 30°C) was -36.3 kJ/mol, the “ΔH (change in enthalpy)” value ([1]; ITC, 30°C) was 6.95 ± 0.11 kJ/mol and the “N (number of binding site)” value [1, 10] was 1.02 ± 0.08. The Kd ([1]; ITC, 30°C, 50 mM Tris-HCl pH 8.0, 100 mM NaCl, single-site model, listed as cellotetraose, read-out: KD (dissociation constant)) was 0.562 µM and the Kd [1, 11] was 0.56 ± 0.08 µM.
In the case of OC[C@H]1O[C@@H](O[C@H]2[C@H](O)[C@@H](O)[C@H](O[C@H]3[C@H](O)[C@@H](O)C(O)O[C@@H]3CO)O[C@@H]2CO)[C@H](O)[C@@H](O)[C@@H]1O (some centres unmarked) [Cellotriose, cellotriose], the Ka ([1]; ITC, 30°C) is reported as 8.55 ± 1.69 ×10^5 · M^−1, the TΔS ([1]; ITC, 30°C) is reported as 44.9 kJ/mol and the ΔG ([1]; ITC, 30°C) is reported as -34.5 kJ/mol. The “ΔH (change in enthalpy)” value ([1]; ITC, 30°C) was 10.4 ± 0.3 kJ/mol, the “N (number of binding site)” value [1, 10] was 0.97 ± 0.02 and the Kd [1, 11] was 1.17 ± 0.23 µM. The “binding to CbpA in NMR titration (HSQC peak shifts)” value [2] was “not” and the “binding to CbpB in NMR titration (HSQC peak shifts)” value [3] was “significant peak shifts”.
In the case of OC[C@H]1OC(O)[C@H](O)[C@@H](O)[C@@H]1O (some centres unmarked) [Glucose, glucose], the Kd [5] is reported as 240 ± 95 µM, the “binding to CbpA in ITC, in words” value ([5]; ITC) is reported as “remarkably weak” and the Ka ([5]; ITC, 30°C) is reported as 0.042 ± 0.016 ×10^5 · M^−1. The TΔS ([5]; ITC, 30°C) was 22.7 kJ/mol, the ΔG ([5]; ITC, 30°C) was -21.0 kJ/mol and the “ΔH (change in enthalpy)” value ([5]; ITC, 30°C) was 1.71 ± 0.36 kJ/mol. For the same compound, the “N (number of binding site)” value [5, 10] was 1.06 ± 0.07, the “interaction with CbpB in ITC, in words” value ([1]; ITC, 30°C) was “could not be fitted to obtain reasonable N and KD values” and the “binding to CbpA in NMR titration (HSQC peak shifts)” value [2] was “binds; also recorded: significant peak shifts”. For the same compound, the “binding to CbpB in NMR titration (HSQC peak shifts)” value [3] was “not” and the “binding to CbpC in previous ITC experiments” value [6] was “can bind”.
With OC[C@H]1O[C@@H](O[C@H]2[C@H](O)[C@@H](CO)OC(O)[C@@H]2O)[C@H](O)[C@@H](O)[C@@H]1O (some centres unmarked) [Laminaribiose, laminaribiose] the Ka ([1]; ITC, 30°C) was 0.93 ± 0.25 ×10^5 · M^−1, the TΔS ([1]; ITC, 30°C) was 33.4 kJ/mol and the “interaction with CbpB in ITC, in words” value ([1]; ITC, 30°C) was “lower affinity compared to cellobiose”. The ΔG ([1]; ITC, 30°C) was -28.9 kJ/mol, the “ΔH (change in enthalpy)” value ([1]; ITC, 30°C) was 4.57 ± 0.42 kJ/mol and the “N (number of binding site)” value [1, 10] was 0.98 ± 0.04. The Kd [1, 11] was 10.7 ± 2.8 µM and the “binding to Lbp in ITC assays” value [7] was “shown to bind”.
With O=C[C@H](O)[C@@H](O)[C@H](O)CO [xylose] the “interaction with CbpD in ITC” value [8] was “could not detect any xylose-binding ability” and the “interaction with CbpD in NMR titration” value [9] was “could not detect any xylose-binding ability”.
